In the NIST ThermoML archive (doi:10.1007/s10765-005-8592-5):
“And” between values parts separate entries of the source, which are not always exact repeats. Equal values may be shown once.

Assay: molar heat capacity at constant volume
Settings: Fluid (supercritical or subcritical phases), Vacuum adiabatic calorimetry

CC(C)C [2-methylpropane]
Settings	molar heat capacity at constant volume
415.15 K, 4254 kPa	222.08 J/K/mol and 230.8 J/K/mol
420.15 K, 4664 kPa	202.67 J/K/mol
420.15 K, 4665 kPa	202.96 J/K/mol
425.15 K, 5082 kPa	186.05 J/K/mol
425.15 K, 5083 kPa	187.1 J/K/mol

CCC [propane]
Settings	molar heat capacity at constant volume [J/K/mol]
270.15 K, 4427 kPa	71.74
275.15 K, 7953 kPa	71.26
280.15 K, 11458 kPa	71.3
285.15 K, 14939 kPa	72.63
290.15 K, 18398 kPa	73.46
295.15 K, 21836 kPa	74.57
300.15 K, 25251 kPa	74.61
305.15 K, 28640 kPa	74.35
310.15 K, 6561 kPa	74.57
315.15 K, 9049 kPa	75.23
320.15 K, 11532 kPa	76.15
325.15 K, 3660 kPa	77.96
325.15 K, 14008 kPa	76.37
330.15 K, 5594 kPa	78.75
330.15 K, 16475 kPa	76.64
335.15 K, 7530 kPa	78.31
335.15 K, 18934 kPa	76.9
340.15 K, 9468 kPa	77.7
340.15 K, 21386 kPa	77.21
345.15 K, 11404 kPa	77.26
345.15 K, 23827 kPa	76.33
350.15 K, 13339 kPa	79.46
350.15 K, 26253 kPa	77.52
355.15 K, 15273 kPa	77.39
355.15 K, 28668 kPa	77.43
360.15 K, 17203 kPa	77.74
365.15 K, 19126 kPa	78.62
370.15 K, 21044 kPa	79.15
375.15 K, 5095 kPa	98.6
380.15 K, 5744 kPa	93.04
385.15 K, 6404 kPa	89.6
390.15 K, 7072 kPa	86.07
395.15 K, 7746 kPa	84.84
400.15 K, 8425 kPa	80.43
405.15 K, 9109 kPa	78.84
410.15 K, 9795 kPa	79.99
420.15 K, 11176 kPa	79.81
425.15 K, 11869 kPa	81.75
